Read-outs that look alike come from different tables or passages of the source.
Tests used:
Experiment in all cases: SelectScreen Kinase Profiling, single point inhibition and IC50 for off-target kinases
Type in all cases: biochemical
off-target kinases [1] = biological target: off-target kinases (Homo sapiens, UniProt O43293); details: DAPK3 (ZIPK), ATP Km app, ZLYTE
off-target kinases [2] = biological target: off-target kinases (Homo sapiens, UniProt P06239); details: LCK, ZLYTE, ATP Km app
off-target kinases [3] = biological target: T1, off-target kinases (Homo sapiens, UniProt Q92630); details: DYRK2, LanthaScreen Binding
T1 sequence (Q92630 1-601): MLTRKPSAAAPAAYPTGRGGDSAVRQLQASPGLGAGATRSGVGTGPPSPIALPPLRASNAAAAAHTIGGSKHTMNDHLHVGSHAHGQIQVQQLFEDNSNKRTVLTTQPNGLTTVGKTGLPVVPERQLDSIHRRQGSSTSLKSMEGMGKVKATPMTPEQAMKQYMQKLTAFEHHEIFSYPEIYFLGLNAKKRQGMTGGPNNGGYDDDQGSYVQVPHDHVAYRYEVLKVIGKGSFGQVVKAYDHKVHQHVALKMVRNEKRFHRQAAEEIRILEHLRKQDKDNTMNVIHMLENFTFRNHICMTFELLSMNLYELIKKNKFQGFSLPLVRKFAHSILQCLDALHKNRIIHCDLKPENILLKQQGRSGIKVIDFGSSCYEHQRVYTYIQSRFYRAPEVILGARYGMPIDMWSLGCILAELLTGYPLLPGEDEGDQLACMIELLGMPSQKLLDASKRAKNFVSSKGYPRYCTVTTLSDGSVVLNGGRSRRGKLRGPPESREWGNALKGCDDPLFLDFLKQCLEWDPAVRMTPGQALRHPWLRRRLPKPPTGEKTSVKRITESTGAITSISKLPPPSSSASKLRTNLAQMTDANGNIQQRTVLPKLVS

Sequence of off-target kinases (Homo sapiens, UniProt P06239) (P06239 whole entry): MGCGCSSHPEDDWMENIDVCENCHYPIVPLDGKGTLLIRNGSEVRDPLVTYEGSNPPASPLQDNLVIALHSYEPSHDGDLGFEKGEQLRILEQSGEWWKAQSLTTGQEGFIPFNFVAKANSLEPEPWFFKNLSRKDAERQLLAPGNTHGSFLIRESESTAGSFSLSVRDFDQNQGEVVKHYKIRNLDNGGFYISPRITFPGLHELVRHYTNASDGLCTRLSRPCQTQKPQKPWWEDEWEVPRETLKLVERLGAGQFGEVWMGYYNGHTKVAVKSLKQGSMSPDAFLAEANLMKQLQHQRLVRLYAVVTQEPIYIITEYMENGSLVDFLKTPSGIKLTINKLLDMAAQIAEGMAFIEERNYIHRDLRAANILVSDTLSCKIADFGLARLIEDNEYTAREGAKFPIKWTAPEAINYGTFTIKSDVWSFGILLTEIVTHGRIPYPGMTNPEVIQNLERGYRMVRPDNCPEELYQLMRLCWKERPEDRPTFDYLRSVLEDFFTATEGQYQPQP
Sequence of off-target kinases (Homo sapiens, UniProt O43293) (O43293 whole entry): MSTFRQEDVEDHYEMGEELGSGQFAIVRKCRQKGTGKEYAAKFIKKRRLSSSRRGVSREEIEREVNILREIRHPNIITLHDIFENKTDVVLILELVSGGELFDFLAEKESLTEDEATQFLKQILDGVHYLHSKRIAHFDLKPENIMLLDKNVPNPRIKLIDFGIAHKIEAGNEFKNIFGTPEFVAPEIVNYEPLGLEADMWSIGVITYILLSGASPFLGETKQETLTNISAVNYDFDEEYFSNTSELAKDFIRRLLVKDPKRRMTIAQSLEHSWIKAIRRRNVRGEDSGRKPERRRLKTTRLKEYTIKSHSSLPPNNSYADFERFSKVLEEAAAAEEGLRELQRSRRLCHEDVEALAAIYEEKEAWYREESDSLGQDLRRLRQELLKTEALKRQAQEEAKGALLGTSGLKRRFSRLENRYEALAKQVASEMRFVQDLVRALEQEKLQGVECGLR

## N#Cc1cc(-c2ncnc(Nc3ccc(N4CCN(C5COC5)CC4)cc3)n2)ccc1OC1CCOCC1 [Compound 1, 5-(4-((4-(4-(oxetan-3-yl)piperazin-1-yl)phenyl)amino)-1,3,5-triazin-2-yl)-2-((tetrahydro-2H-pyran-4-yl)oxy)benzonitrile]
off-target kinases [1]; read-out: % Inhibition 1
  inhibition: 52%
off-target kinases [1]; read-out: % Inhibition 2
  inhibition: 49%
off-target kinases [1]; read-out: % Inhibition Avg
  inhibition: 51%
off-target kinases [2]; read-out: % Inhibition 1
  inhibition: 41%
off-target kinases [2]; read-out: % Inhibition 2
  inhibition: 38%
off-target kinases [2]; read-out: % Inhibition Avg
  inhibition: 40%
off-target kinases [3]; read-out: % Inhibition 1
  inhibition: 54%
off-target kinases [3]; read-out: % Inhibition 2
  inhibition: 53%
off-target kinases [3]; read-out: % Inhibition Avg
  inhibition: 54%

Reference: patent US11572590B2, “Methods for evaluating tumor cell spheroids using 3D microfluidic cell culture device” (Dana-Farber Cancer Institute, Inc., priority 2017, dated 2023)
